Where no end group is shown, it is not given here.
Key:
[1] = test system: S. aureus clinical isolate biofilms; experiment: AFM imaging, surface roughness (Rrms); assay type: cell-based, Staphylococcus aureus; settings: 4 h; for cell surface roughness (Rrms): untreated 7.4 ± 1.9 nm; for biofilm surface roughness (Rrms): untreated 183 ± 23 nm
Protocol: AFM was used to visualize the topography and morphology of S. aureus biofilms in the absence and presence of vCPP2319. Bacterial suspensions at 1 × 10^6 CFU/mL were incubated in a sterile slide with a removable 12 well silicone chamber (Ibidi) for 24 h at 37 °C. After a washing step with MHB, preformed biofilms were incubated in the absence or presence of vCPP2319 at 25 or 50 μM, for 4 h at 37 °C. Untreated and treated biofilms were then washed once with sterile Milli-Q water and incubated with 0.1% (v/v) glutaraldehyde (Sigma-Aldrich) for 4 h at room temperature. Afterward, each sample was washed twice with sterile Milli-Q water and allowed to dry in air for 1 h at room temperature. AFM images were acquired by using a JPK NanoWizard IV (Berlin, Germany) mounted on a Zeiss Axiovert 200 inverted microscope (Oberkochen, Germany). The AFM head was equipped with a 15 μm z-range linearized piezoelectric scanner and an infrared laser. Images were acquired in air and in intermittent contact mode using uncoated silicon ACL cantilevers from AppNano (Mountain View, CA, USA) with typical resonance frequencies of 200–400 kHz and spring constant of 13–77 N/m. Scan speeds ranged between 0.2 and 0.4 Hz and total scan areas of 5 × 5 μm were imaged. Height and error images were recorded. Height images reflect the topography of the sample. Error images are generated by the deflection of the cantilever as it bends while interacting with the sample and are adequate to improve resolution on the edges of objects imaged by AFM. For each experiment, three different areas were imaged. The surface roughness was defined as the root-mean-square roughness (Rrms)[52] and it was obtained from AFM height images using Gwyddion software version 2.56, based on the following equation after compensation for bacterial curvature: [drawing 3] 3 where N is the number of data points and zi is the height deviation of i-th point from a mean line.[53] For the biofilm surface roughness, Rrms values were calculated from the total imaged area of the biofilm, while for the cell surface roughness, Rrms values were calculated from a line of cells in three different regions of each image of untreated and peptide-treated biofilms. The final Rrms values are the averages of all measurements.

[2] = test system: S. aureus clinical isolate biofilms; experiment: CLSM assay, SYTO 9 / WGA Alexa Fluor 633, polysaccharide density and mass, biofilm height; assay type: cell-based, Staphylococcus aureus; settings: fold variation relative to untreated biofilm, 0.13 mg/mL α-amylase, 25 μM vCPP2319, 4 h each
Protocol: (EC 3.2.1.1) on the EPS matrix of S. aureus biofilms was evaluated using a CLSM-based assay. Briefly, the bacterial cells and the matrix components of S. aureus biofilms were imaged using SYTO 9 and Wheat Germ Agglutinin (WGA) Alexa Fluor 633 Conjugate (Invitrogen, Carlsbad, CA, USA). Preformed biofilms (see above) were washed once with PBS and stained with 3 μM SYTO 9 and 5 μg/mL WGA Alexa Fluor 633, for 15 min at room temperature.
SYTO 9 was excited using the Argon laser (488 nm), and both TO-PRO-3 iodide and WGA Alexa Fluor 633 were excited with the Helium–Neon laser (633 nm), respectively. Image acquisition was performed on a Zeiss LSM 710 confocal laser point-scanning inverted microscope (Carl Zeiss MicroImaging, Oberkochen, Germany) equipped with a Plan-Apochromat DIC 63× oil immersion objective (1.40 numerical aperture). For each experiment, three different areas were imaged. All images were analyzed with the image processor Fiji.[54] TO-PRO-3 mean fluorescence intensity over the image was quantified from the xy plane of an inner layer (z = 2 μm, z being the distance from the surface of the glass slide) using Fiji’s incorporated plug-ins.[54] WGA mean fluorescence intensity over the image was quantified from the xy plane of an inner layer (z = 2 μm, z being the distance from the surface of the glass slide) and also from a z-projection of the sum of the z-stack slices, using Fiji’s incorporated plug-ins.[54] Biofilm height was determined from the xz orthogonal images using ZEN lite software (Carl Zeiss MicroImaging).
The mean emission fluorescence intensity of WGA integrated over a plane xy at a specific depth, z, If,WGA,xy, is proportional to the mass of polysaccharides in that plane.

WRRRYRRWRRRRRWRRRPRR-NH2 [vCPP2319]
cell surface roughness (Rrms) ([1]; 25 μM): 13 ± 3 nm | biofilm surface roughness (Rrms) ([1]; 25 μM): 303 ± 93 nm | cell surface roughness (Rrms) ([1]; 50 μM): 20 ± 5 nm | biofilm surface roughness (Rrms) ([1]; 50 μM): 429 ± 142 nm | ρi/ρcontrol (polysaccharides) eq 4 ([2]; WGA fluorescence at z = 2 μm): 0.7 | mi/mcontrol (polysaccharides) eq 5 ([2]; integrated WGA fluorescence over total biofilm): 0.5 | ρi/ρcontrol (polysaccharides) eq 6 ([2]; integrated WGA fluorescence over zz divided by biofilm height): 0.8
